Test results published in US6352958B1, “Cycloimido-substituted benzofused heterocyclic herbicides” (FMC Corporation, priority 1997, dated 2002).

Legend:
Format in all cases: in vivo
[1] = test system: soybean (Glycine max var. Winchester); experiment: Preemergence herbicidal activity, soybean; settings: Rate of Application 0.3 Kg/Ha, examined after 12-17 days
[2] = test system: morningglory (Ipomea lacunosa or Ipomea hederacea); experiment: Preemergence herbicidal activity, morningglory; settings: Rate of Application 0.3 Kg/Ha, examined after 12-17 days
[3] = test system: field corn (Zea mays var. Pioneer 3732); experiment: Preemergence herbicidal activity, corn; settings: Rate of Application 0.3 Kg/Ha, examined after 12-17 days
[4] = test system: common cocklebur (Xanthium strumarium L.); experiment: Preemergence herbicidal activity, cocklebur; settings: Rate of Application 0.3 Kg/Ha, examined after 12-17 days
[5] = test system: field corn (Zea mays var. Pioneer 3732); experiment: Postemergence herbicidal activity, corn; settings: rate of application 0.3 Kg/Ha, rated after 12-17 days
[6] = test system: Johnsongrass (Sorghum halepense); experiment: Postemergence herbicidal activity, johnsongrass; settings: rate of application 0.3 Kg/Ha, rated after 12-17 days
[7] = test system: common chickweed (Stellaria media); experiment: Preemergence herbicidal activity, chickweed; settings: Rate of Application 0.3 Kg/Ha, examined after 12-17 days
[8] = test system: morningglory (Ipomea lacunosa or Ipomea hederacea); experiment: Postemergence herbicidal activity, morningglory; settings: rate of application 0.3 Kg/Ha, rated after 12-17 days
[9] = test system: blackgrass (Aloepecurus myosuroides); experiment: Preemergence herbicidal activity, blackgrass; settings: Rate of Application 0.3 Kg/Ha, examined after 12-17 days
[10] = test system: blackgrass (Aloepecurus myosuroides); experiment: Postemergence herbicidal activity, blackgrass; settings: rate of application 0.3 Kg/Ha, rated after 12-17 days
[11] = test system: common chickweed (Stellaria media); experiment: Postemergence herbicidal activity, chickweed; settings: rate of application 0.3 Kg/Ha, rated after 12-17 days
[12] = test system: wheat (Triticum aestivum var. Lew); experiment: Postemergence herbicidal activity, wheat; settings: rate of application 0.3 Kg/Ha, rated after 12-17 days
[13] = test system: velvetleaf (Abutilon theophrasti); experiment: Preemergence herbicidal activity, velvetleaf; settings: Rate of Application 0.3 Kg/Ha, examined after 12-17 days
[14] = test system: Johnsongrass (Sorghum halepense); experiment: Preemergence herbicidal activity, johnsongrass; settings: Rate of Application 0.3 Kg/Ha, examined after 12-17 days
[15] = test system: green foxtail (Setaria viridis); experiment: Preemergence herbicidal activity, green foxtail; settings: Rate of Application 0.3 Kg/Ha, examined after 12-17 days
[16] = test system: velvetleaf (Abutilon theophrasti); experiment: Postemergence herbicidal activity, velvetleaf; settings: rate of application 0.3 Kg/Ha, rated after 12-17 days
[17] = test system: wheat (Triticum aestivum var. Lew); experiment: Preemergence herbicidal activity, wheat; settings: Rate of Application 0.3 Kg/Ha, examined after 12-17 days
[18] = test system: soybean (Glycine max var. Winchester); experiment: Postemergence herbicidal activity, soybean; settings: rate of application 0.3 Kg/Ha, rated after 12-17 days
[19] = test system: common cocklebur (Xanthium strumarium L.); experiment: Postemergence herbicidal activity, cocklebur; settings: rate of application 0.3 Kg/Ha, rated after 12-17 days
[20] = test system: green foxtail (Setaria viridis); experiment: Postemergence herbicidal activity, green foxtail; settings: rate of application 0.3 Kg/Ha, rated after 12-17 days

Row | SMILES | PREEMERGENCE HERBICIDAL ACTIVITY (% CONTROL) SOY [1] [%] | PREEMERGENCE HERBICIDAL ACTIVITY (% CONTROL) IPOSS [2] [%] | PREEMERGENCE HERBICIDAL ACTIVITY (% CONTROL) CRN [3] [%] | PREEMERGENCE HERBICIDAL ACTIVITY (% CONTROL) XANPE [4] [%] | Postemergence herbicidal activity (% control) CRN [5] [%] | Postemergence herbicidal activity (% control) SORHA [6] [%] | PREEMERGENCE HERBICIDAL ACTIVITY (% CONTROL) STEME [7] [%] | Postemergence herbicidal activity (% control) IPOSS [8] [%] | PREEMERGENCE HERBICIDAL ACTIVITY (% CONTROL) ALOMY [9] [%] | Postemergence herbicidal activity (% control) ALOMY [10] [%] | Postemergence herbicidal activity (% control) STEME [11] [%] | Postemergence herbicidal activity (% control) WHT [12] [%] | PREEMERGENCE HERBICIDAL ACTIVITY (% CONTROL) ABUTH [13] [%] | PREEMERGENCE HERBICIDAL ACTIVITY (% CONTROL) SORHA [14] [%] | PREEMERGENCE HERBICIDAL ACTIVITY (% CONTROL) SETVI [15] [%] | Postemergence herbicidal activity (% control) ABUTH [16] [%] | PREEMERGENCE HERBICIDAL ACTIVITY (% CONTROL) WHT [17] [%] | Postemergence herbicidal activity (% control) SOY [18] [%] | Postemergence herbicidal activity (% control) XANPE [19] [%] | Postemergence herbicidal activity (% control) SETVI [20] [%]
1 | COC(C)(C)c1cc2c(Cl)ccc(-n3c(=O)cc(C(F)(F)F)n(C)c3=O)c2o1 [Compound 251] | 90 | 100 | 95 | 100 | 90 | 95 | 95 | 100 | 90 | 100 | 100 | 70 | 100 | 100 | 100 | 100 | 90 | 95 | 95 | 100
2 | Cn1c(C(F)(F)F)cc(=O)n(-c2ccc(Cl)c3cc(NC(=O)OC(C)(C)C)oc23)c1=O [Compound 272] | 20 | 70 | 20 | 20 | 45 | 40 | 100 | 60 | 70 | 20 | 50 | 30 | 100 | 60 | 90 | 100 | 0 | 50 | 50 | 70
3 | C=Cc1cc2c(Cl)cc(F)c(-n3c(=O)cc(C(F)(F)F)n(C)c3=O)c2o1 [Compound 230] | 100 | 100 | 80 | 100 | 80 | 90 | 100 | 100 | 80 | 70 | 90 | 40 | 100 | 100 | 100 | 100 | 40 | 95 | 100 | 100
4 | Cc1nc2c(-n3c(=O)cc(C(F)(F)F)n(N)c3=O)c(F)cc(Cl)c2o1 [Compound 112] | 100 | 100 | 100 | 100 | 100 | 100 | 100 | 100 | 100 | 100 | 100 | 100 | 100 | 100 | 100 | 100 | 100 | 100 | 100 | 100
